# Patent US20230293599A1, “BACTERIAL COMPOSITIONS WITH ANTI-INFLAMMATORY ACTIVITY” (Universiteit Gent, priority 2020, published 2023)
# Like-named read-outs stand apart in the source and are kept apart here. Residues, ends and D or L forms follow the SMILES beside them.
# Legend:
# R. mucilaginosa = assay: Biolog Phenotype Microarray PM1-2 growth on carbon sources; assay type: cell-based, Rothia mucilaginosa; details: for growth of R. mucilaginosa on the carbon source (in words): AUC lower than 50 = not supporting growth
# Experimental: (§1) Using Phenotype Microarray (PM) panels (Biolog), the influence of 190 carbon sources on the growth of the potential probiotic species R. mucilaginosa, R. dentocariosa, R. gilardii, G. haemolysans, and common respiratory pathogens P. aeruginosa, and S. aureus was determined. PM1 and PM2 panels (Biolog) were inoculated according to the manufacturer's instructions. Growth curves were generated for 35 hours by measuring the absorbance at 590 nm using an EnVision (Perkin Elmer) plate reader.
# P. aeruginosa = assay: as above; assay type: cell-based, Pseudomonas aeruginosa; details: for growth of P. aeruginosa on the carbon source (in words): AUC lower than 50 = not supporting growth
# Experimental: as §1
# S. aureus = assay type: cell-based, Staphylococcus aureus
# Experimental: as §1
# R. dentocariosa = assay: Biolog Phenotype Microarray PM1-2 growth on carbon sources; assay type: cell-based, Rothia dentocariosa; details: for growth of R. dentocariosa on the carbon source (in words): AUC lower than 50 = not supporting growth
# Experimental: as §1
# R. gilardii = assay: as above; assay type: cell-based, Roseomonas gilardii
# Experimental: as §1
# G. haemolysans = assay: as above; assay type: cell-based, Gemella haemolysans; details: for growth of G. haemolysans on the carbon source (in words): AUC lower than 50 = not supporting growth
# Experimental: as §1
# [1] = 35 hours, absorbance 590 nm, n = 1, cells without values AUC < 50
Compound,"AUC of growth curve, R. mucilaginosa (R. mucilaginosa; [1])",growth of P. aeruginosa on the carbon source (in words) (P. aeruginosa),"AUC of growth curve, S. aureus (S. aureus)","AUC of growth curve, R. dentocariosa (R. dentocariosa; [1])",growth of R. dentocariosa on the carbon source (in words) (R. dentocariosa),"AUC of growth curve, R. gilardii (R. gilardii; [1])","AUC of growth curve, P. aeruginosa (P. aeruginosa; [1])","AUC of growth curve, G. haemolysans (G. haemolysans; [1])",further results
OC[C@H]1O[C@H](O[C@H]2O[C@H](CO)[C@@H](O)[C@H](O)[C@H]2O)[C@H](O)[C@@H](O)[C@@H]1O [D-Trehalose],572.3,did not support growth,852.9,937.7,allowed growth,–,–,–,growth of R. mucilaginosa on the carbon source (in words) (R. mucilaginosa): allowed growth
O=CC(=O)O [Glyoxylic Acid],142.0,–,–,53.5,–,85.2,–,–,–
"O=P(O)(O)OCC(O)CO (racemic) [D,L-α-Glycerol-Phosphate]",247.7,not or only minimally supporting growth,–,271.8,enable growth,–,114.5,–,growth of R. mucilaginosa on the carbon source (in words) (R. mucilaginosa): enable growth; growth of S. aureus on the carbon source (in words) (S. aureus): not or only minimally supporting growth
COC(=O)C(C)=O [Methyl Pyruvate],–,–,611.5,74.1,–,–,818.7,870.9,–
CC(=O)N[C@H]1[C@@H](O)[C@H](O)[C@@H](CO)O[C@H]1O [N-Acetyl-β-D-Mannosamine],–,did not support growth,738.3,–,–,–,–,375.8,growth of G. haemolysans on the carbon source (in words) (G. haemolysans): supported growth
CO[C@@H]1O[C@H](CO)[C@@H](O)[C@H](O)[C@H]1O [β-Methyl-D-Glucoside],599.6,did not support growth,779.9,405.7,allowed growth,56.3,–,–,growth of R. mucilaginosa on the carbon source (in words) (R. mucilaginosa): allowed growth
C/C=C/C=C/C(=O)O [Sorbic Acid],–,–,495.2,82.4,–,56.2,–,90.3,–
O=C[C@@H](O)[C@H](O)[C@H](O)CO [D-Arabinose],–,–,705.0,305.6,–,356.3,763.4,88.1,–
Nc1ncnc2c1ncn2[C@@H]1O[C@H](CO)[C@@H](O)[C@H]1O [Adenosine],–,–,472.6,–,–,–,398.1,65.6,–
OCC(O)CO [Glycerol],786.8,did not support growth,802.4,998.9,allowed growth,59.0,78.3,–,growth of R. mucilaginosa on the carbon source (in words) (R. mucilaginosa): allowed growth
O=C(CO)[C@H](O)[C@H](O)[C@H](O)CO [D-Psicose],–,–,698.5,–,–,–,–,–,"AUC of growth curve, R. gilardii (R. gilardii): 86.7; AUC of growth curve, R. mucilaginosa (R. mucilaginosa): 436.4; AUC of growth curve, P. aeruginosa (P. aeruginosa): 771.3; AUC of growth curve, R. dentocariosa (R. dentocariosa): 428.2"
NCC(=O)N[C@@H](CCC(=O)O)C(=O)O [Glycyl-L-Glutamic Acid] (H-Gly-Glu-OH),–,–,871.5,–,–,–,–,–,"AUC of growth curve, R. gilardii (R. gilardii): 61.5; AUC of growth curve, R. mucilaginosa (R. mucilaginosa): 140.3; AUC of growth curve, P. aeruginosa (P. aeruginosa): 285.6"
Maltotriose,1074.7,did not support growth,943.9,1276.1,allowed growth,54.2,–,–,growth of R. mucilaginosa on the carbon source (in words) (R. mucilaginosa): allowed growth
C[C@H](O)C(=O)O [L-Lactic Acid],292.5,–,773.2,632.8,–,70.3,349.6,–,–
CC(=O)N[C@H]1C(O)O[C@H](CO)[C@@H](O)[C@@H]1O (stereo partly drawn) [N-Acetyl-D-Glucosamine],–,did not support growth,643.5,–,–,–,–,711.9,growth of G. haemolysans on the carbon source (in words) (G. haemolysans): supported growth
O=C(O)[C@]1(O)C[C@@H](O)[C@@H](O)[C@H](O)C1 [Quinic Acid],68.3,–,255.3,–,–,92.0,1197.1,–,–
N[C@H]1C(O)O[C@H](CO)[C@@H](O)[C@@H]1O (stereo partly drawn) [D-Glucosamine],–,–,884.6,200.6,–,196.5,840.0,618.4,–

Compound,"AUC of growth curve, R. mucilaginosa (R. mucilaginosa; [1])",growth of P. aeruginosa on the carbon source (in words) (P. aeruginosa),"AUC of growth curve, S. aureus (S. aureus)","AUC of growth curve, R. dentocariosa (R. dentocariosa; [1])",growth of R. dentocariosa on the carbon source (in words) (R. dentocariosa),"AUC of growth curve, R. gilardii (R. gilardii; [1])","AUC of growth curve, P. aeruginosa (P. aeruginosa; [1])","AUC of growth curve, G. haemolysans (G. haemolysans; [1])",further results
CC(=O)CC(=O)O [Acetoacetic Acid],301.4,–,928.3,229.8,–,172.4,301.3,–,–
OC[C@H]1O[C@@](CO)(O[C@H]2O[C@H](CO)[C@@H](O)[C@H](O)[C@H]2O)[C@@H](O)[C@@H]1O [Sucrose],–,did not support growth,–,–,allowed growth,–,–,–,growth of R. mucilaginosa on the carbon source (in words) (R. mucilaginosa): allowed growth
C[C@H](N)C(=O)NCC(=O)O [L-Alanyl-Glycine] (H-Ala-Gly-OH),–,–,809.1,–,–,–,–,–,"AUC of growth curve, R. gilardii (R. gilardii): 76.2; AUC of growth curve, G. haemolysans (G. haemolysans): 114.6; AUC of growth curve, P. aeruginosa (P. aeruginosa): 180.2"
N[C@@H](Cc1ccccc1)C(=O)O [L-Phenylalanine],–,–,167.3,–,–,–,–,64.4,–
OC[C@H]1O[C@H](O[C@H]2[C@H](O)[C@@H](O)[C@H](O)O[C@@H]2CO)[C@H](O)[C@@H](O)[C@@H]1O [Maltose],1052.6,did not support growth,867.8,977.1,allowed growth,–,–,–,growth of R. mucilaginosa on the carbon source (in words) (R. mucilaginosa): allowed growth
OC[C@H]1O[C@H](OC[C@H]2OC(O)(CO)[C@@H](O)[C@@H]2O)[C@H](O)[C@@H](O)[C@@H]1O (stereo partly shown) [Palatinose],129.4,–,763.7,197.4,–,–,514.7,–,–
OCc1ccccc1O[C@@H]1O[C@H](CO)[C@@H](O)[C@H](O)[C@H]1O [Salicin],74.0,did not support growth,146.2,222.9,stimulated only the growth,–,–,–,–
Tween 40,–,–,154.9,–,–,–,–,101.2,–
O=C(O)C[C@H](O)C(=O)O [L-Malic Acid],–,–,648.8,–,–,202.5,808.2,73.9,–
Dextrin,–,did not support growth,–,135.6,stimulated only the growth,–,–,66.1,"AUC of growth curve, S. aureus (S. aureus; [1]): 908.1"
"CC(O)C(C)O (stereo not shown) [2,3-Butanediol]",–,–,147.2,–,–,–,–,145.4,–
O=C(CO)[C@@H](O[C@H]1O[C@H](CO)[C@@H](O)[C@H](O)[C@H]1O)[C@H](O)[C@H](O)CO [Turanose],91.9,did not support growth,1146.9,296.1,stimulated only the growth,–,–,–,–
O=C(O)[C@@H]1CCCN1 [L-Proline],268.5,–,567.9,1049.5,–,–,425.7,–,–
O=CC[C@H](O)[C@H](O)CO [2-Deoxy-D-Ribose],–,–,580.2,376.6,–,366.7,529.9,180.3,–
O=C(CO)[C@@H](O)[C@H](O)[C@@H](O)C(=O)O [5-Keto-D-Gluconic Acid],–,–,432.1,–,–,–,–,–,"AUC of growth curve, R. gilardii (R. gilardii): 423.9; AUC of growth curve, G. haemolysans (G. haemolysans): 122.8; AUC of growth curve, P. aeruginosa (P. aeruginosa): 1312.5; AUC of growth curve, R. dentocariosa (R. dentocariosa): 277.0"
O=C[C@H](O)[C@@H](O)[C@@H](O)[C@H](O)CO [D-Galactose],101.1,–,834.0,533.6,–,186.6,720.0,–,–
